Measurements taken from patent US4929612A, “Thiadiazolylacetamide cephem derivatives” (Eisai Co., Ltd., priority 1987, dated 1990).
Converted amounts (≈) assume the structure as drawn. Like-named read-outs stand apart in the source and are kept apart here.

What was measured:
Staph. aureus 209-P = test: anti-bacterial activity, MIC, Staph. aureus 209-P; format: cell-based; conditions: Staphylococcus aureus, inoculum size 10^6 CFU/ml
From the text: (§1) Test bacterium MIC (μg/ml) Inoculum size 10^6 CFU/ml

Escher. coli NIHJ = test: anti-bacterial activity, MIC, Escher. coli NIHJ; format: cell-based; conditions: Escherichia coli, inoculum size 10^6 CFU/ml
From the text: as §1

Kleb. pneumoniae EK-6 = test: anti-bacterial activity, MIC, Kleb. pneumoniae EK-6; format: cell-based; conditions: Klebsiella pneumoniae, EK6
From the text: as §1

Ser. marcescens ES-75 = test: anti-bacterial activity, MIC, Ser. marcescens ES-75; format: cell-based; conditions: Serratia marcescens, ES75
From the text: as §1

[1] = tested on: Morganella morganii EP-14; test: anti-bacterial activity, MIC, Morganella morganii EP-14; format: cell-based; conditions: EP14, inoculum size 10^6 CFU/ml
From the text: as §1

Pseud. aeruginosa EP-01 = test: anti-bacterial activity, MIC, Pseud. aeruginosa EP-01; format: cell-based; conditions: Pseudomonas aeruginosa, EP01, inoculum size 10^6 CFU/ml
From the text: as §1

[2] = Acute toxicity, LD50 (mouse, intravenous injection); conditions: in vivo
From the text: Acute toxicity [LD50 (mouse, intravenous injection)] of the following compounds was more than 3 g/kg, respectively.

[3] = Kleb. pneumoniae EK-6, inoculum size 10^6 CFU/ml, read-out: MIC
[4] = Ser. marcescens ES-75, inoculum size 10^6 CFU/ml, read-out: MIC

| SMILES | MIC (Staph. aureus 209-P) [µg/mL] | MIC (Escher. coli NIHJ) [µg/mL] | MIC (Kleb. pneumoniae EK-6; [3]) [µg/mL] | MIC (Ser. marcescens ES-75; [4]) [µg/mL] | MIC [1] [µg/mL] | MIC (Pseud. aeruginosa EP-01) [µg/mL] | LD50 [2] [mg/kg] | MIC (Ser. marcescens ES-75) [µg/mL] | MIC (Kleb. pneumoniae EK-6) [µg/mL] |
| --- | --- | --- | --- | --- | --- | --- | --- | --- | --- |
| NC(=O)C12CC[N+](CC3=C(C(=O)[O-])N4C(=O)[C@@H](NC(=O)/C(=N\OCF)c5nsc(N)n5)[C@H]4SC3)(CC1)CC2 [Example 1, 7β-[2-(5-Amino-1,2,4-thiadiazol-3-yl)-(Z)-2-fluoromethoxyiminoacetamido]-3-(4-carbamoyl-1-quinuclidinio)methyl-3-cephem-4-carboxylate] | 1.56 (≈ 2.74 µM) | 0.05 (≈ 0.0879 µM) | 0.05 (≈ 0.0879 µM) | 0.1 (≈ 0.176 µM) | 0.05 (≈ 0.0879 µM) | 0.4 (≈ 0.703 µM) | > 3000 | – | – |
| CC12CC[N+](CC3=C(C(=O)[O-])N4C(=O)[C@@H](NC(=O)/C(=N\OCF)c5nsc(N)n5)[C@H]4SC3)(CC1)CC2 [Example 2, 7β-[2-(5-Amino-1,2,4-thiadiazol-3-yl)-(Z)-2-fluoromethoxyiminoacetamido]-3-(4-methyl-1-quinuclidinio)methyl-3-cephem-4-carboxylate] | 0.8 (≈ 1.48 µM) | 0.05 (≈ 0.0927 µM) | 0.05 (≈ 0.0927 µM) | – | 0.1 (≈ 0.185 µM) | 0.8 (≈ 1.48 µM) | – | 0.1 (≈ 0.185 µM) | – |
| Nc1nc(/C(=N/OCF)C(=O)N[C@@H]2C(=O)N3C(C(=O)[O-])=C(C[N+]45CCC(O)(CC4)C5)CS[C@H]23)ns1 [Example 3, 7β-[2-(5-Amino-1,2,4-thiadiazol-3-yl)-(Z)-2-fluoromethoxyiminoacetamido]-3-(4-hydroxy-1,4-methylene-1-piperidinio)methyl-3-cephem-4-carboxylate] | 0.4 (≈ 0.758 µM) | 0.05 (≈ 0.0948 µM) | – | 0.1 (≈ 0.19 µM) | 0.05 (≈ 0.0948 µM) | 0.8 (≈ 1.52 µM) | > 3000 | – | 0.1 (≈ 0.19 µM) |
| C[N+]1(CC2=C(C(=O)[O-])N3C(=O)[C@@H](NC(=O)/C(=N\OCF)c4nsc(N)n4)[C@H]3SC2)CCCC1 [Example 4, 7β-[2-(5-Amino-1,2,4-thiadiazol-3-yl)-(Z)-2-fluoromethoxyiminoacetamido]-3-(1-methyl-1-pyrrolidinio)methyl-3-cephem-4-carboxylate] | 0.8 (≈ 1.6 µM) | ≤ 0.025 | 0.05 (≈ 0.1 µM) | 0.05 (≈ 0.1 µM) | ≤ 0.025 | 0.8 (≈ 1.6 µM) | – | – | – |
| C[N+](C)(CCC(N)=O)CC1=C(C(=O)[O-])N2C(=O)[C@@H](NC(=O)/C(=N\OCF)c3nsc(N)n3)[C@H]2SC1 [Example 5, 7β-[2-(5-Amino-1,2,4-thiadiazol-3-yl)-(Z)-2-fluoromethoxyiminoacetamido]-3-[N,N-dimethyl-N-(2-carbamoyl)ethylammonio]methyl-3-cephem-4-carboxylate] | 1.56 (≈ 2.94 µM) | ≤ 0.025 | ≤ 0.025 | – | 0.05 (≈ 0.0942 µM) | 1.56 (≈ 2.94 µM) | – | 0.1 (≈ 0.188 µM) | – |
| C[N+]1(CC2=C(C(=O)[O-])N3C(=O)[C@@H](NC(=O)/C(=N\OCF)c4nsc(N)n4)[C@H]3SC2)CC=C(C(N)=O)CC1 (stereo partly drawn) [Example 6, 7β-[2-(5-Amino-1,2,4-thiadiazol-3-yl)-(Z)-2-fluoromethoxyiminoacetamido]-3-(4-carbamoyl-1-methyl-1,2,3,6-tetrahydropyridinio)methyl-3-cephem-4-carboxylate] | 1.56 (≈ 2.81 µM) | 0.05 (≈ 0.0902 µM) | 0.05 (≈ 0.0902 µM) | 0.1 (≈ 0.18 µM) | 0.05 (≈ 0.0902 µM) | 0.8 (≈ 1.44 µM) | – | – | – |
| Nc1nc(/C(=N/OCF)C(=O)N[C@@H]2C(=O)N3C(C(=O)[O-])=C(C[N+](CCO)(CCO)CCO)CS[C@H]23)ns1 [Example 7, 7β-[2-(5-Amino-1,2,4-thiadiazol-3-yl)-(Z)-2-fluoromethoxyiminoacetamido]-3-[tris(2-hydroxyethyl)ammonio]methyl-3-cephem-4-carboxylate] | 6.25 (≈ 11.1 µM) | 0.1 (≈ 0.177 µM) | 0.1 (≈ 0.177 µM) | 0.4 (≈ 0.71 µM) | 0.1 (≈ 0.177 µM) | 3.13 (≈ 5.55 µM) | – | – | – |
| Nc1nc(/C(=N/OCF)C(=O)N[C@@H]2C(=O)N3C(C(=O)[O-])=C(C[n+]4ccc5n4CCOC5)CS[C@H]23)ns1 [Example 8, 7β-[2-(5-Amino-1,2,4-thiadiazol-3-yl)-(Z)-2-fluoromethoxyiminoacetamido]-3-[1-morpholino-[4,3-b]pyrazolio]methyl-3-cephem-4-carboxylate] | 0.4 (≈ 0.743 µM) | ≤ 0.025 | 0.05 (≈ 0.0928 µM) | 0.05 (≈ 0.0928 µM) | 0.05 (≈ 0.0928 µM) | 0.8 (≈ 1.49 µM) | – | – | – |
| Nc1nc(/C(=N/OCF)C(=O)N[C@@H]2C(=O)N3C(C(=O)[O-])=C(C[n+]4cccn4CCO)CS[C@H]23)ns1 [Example 9, 7β-[2-(5-Amino-1,2,4-thiadiazol-3-yl)-(Z)-2-fluoromethoxyiminoacetamido]-3-[2-(2-hydroxyethyl)-1-pyrazolio]methyl-3-cephem-4-carboxylate] | 0.4 (≈ 0.76 µM) | 0.05 (≈ 0.095 µM) | 0.05 (≈ 0.095 µM) | 0.05 (≈ 0.095 µM) | 0.05 (≈ 0.095 µM) | 0.8 (≈ 1.52 µM) | – | – | – |
| Nc1nc(/C(=N/OCF)C(=O)N[C@@H]2C(=O)N3C(C(=O)[O-])=C(C[n+]4ccc5n4CCCC5)CS[C@H]23)ns1 [Example 10, 7β-[2-(5-Amino-1,2,4-thiadiazol-3-yl)-(Z)-2-fluoromethoxyiminoacetamido]-3-[1-(2,3-tetramethylene)pyrazolio]methyl-3-cephem-4-carboxylate] | 0.4 (≈ 0.745 µM) | ≤ 0.025 | ≤ 0.025 | 0.05 (≈ 0.0932 µM) | 0.05 (≈ 0.0932 µM) | 0.8 (≈ 1.49 µM) | – | – | – |
| Nc1nc(/C(=N/OCF)C(=O)N[C@@H]2C(=O)N3C(C(=O)[O-])=C(C[N+]45CCC(CO)(CC4)CC5)CS[C@H]23)ns1 [Example 11, 7β-[2-(5-Amino-1,2,4-thiadiazol-3-yl)-(Z)-2-fluoromethoxyiminoacetamido]-3-(4-hydroxylmethyl-1-quinuclidinio)methyl-3-cephem-4-carboxylate] | 0.8 (≈ 1.44 µM) | ≤ 0.025 | ≤ 0.025 | 0.1 (≈ 0.18 µM) | ≤ 0.025 | 0.4 (≈ 0.72 µM) | > 3000 | – | – |
